Results taken from patent publication US20240174690A1, “ANNULATED 2-AMINO-3-CYANO THIOPHENES AND DERIVATIVES FOR THE TREATMENT OF CANCER” (BOEHRINGER INGELHEIM INTERNATIONAL GMBH, priority 2021, published 2024).

Tests used:
[1] = system: KRAS G12C-dependent Ba/F3 cells; experiment: Ba/F3 proliferation assay, KRAS G12C; format: cell-based; conditions: Mus musculus, BaF3, 72 h, AlamarBlue
Protocol: Plasmids containing KRASG12 mutants (i.e. […], G12C, G12V) are obtained from GeneScript. To generate KRASG12-dependent Ba/F3 models, Ba/F3 cells are transduced with retroviruses containing vectors that harbor KRASG12 isoforms. Platinum-E cells (Cell Biolabs) are used for retrovirus packaging. Retrovirus is added to Ba/F3 cells. To ensure infection, 4 μg/mL polybrene is added and cells are spinfected. […] Cells with an infection efficiency of 10% to 20% are further cultivated and puromycin selection with 1 μg/mL is initiated. As a control, parental Ba/F3 cells are used to show selection status. Selection is considered successful when parental Ba/F3 cells cultures died. To evaluate the transforming potential of KRASG12 mutations, the growth medium is no longer supplemented with IL-3. Ba/F3 cells harboring the empty vector are used as a control. Approximately ten days before conducting the experiments, puromycin is left out.
Compounds are added using an Access Labcyte Workstation with a Labcyte Echo 550 or 555 accoustic dispenser. All treatments are performed in technical duplicates. […] AlamarBlue™ (ThermoFisher), a viability stain, is added and fluorescence measured in the PerkinElmer Envision HTS Multilabel Reader. The raw data are imported into and analyzed with the Boehringer Ingelheim proprietary software MegaLab (curve fitting based on the program PRISM, GraphPad Inc.).

AsPC-1 cells = experiment: AsPC-1 CTG proliferation assay (120 h) (pancreatic cancer, G12D); format: cell-based; conditions: Homo sapiens, ASPC1
Protocol: AsPC-1 CTG Proliferation Assay (120 h) (Pancreatic Cancer, G12D)
The CTG assay is designed to measure quantitatively the proliferation of AsPC-1 cells (ATCC […]), using the CellTiter Glow Assay Kit (Promega G7571). Cells are grown in RPMI medium (ATCC) supplemented with Fetal Calf Serum (Life Technologies, Gibco BRL, Cat. No. 10270-106). On “day 0” 2000 AsPC-1 cells are seeded in 60 μL RPMI ATCC+10% FCS+Penstrep in a 384-well plate, flat and clear bottom (Greiner, PNr. 781091). Cells are then incubated in the plates at 37° C. in a CO2 incubator overnight. On day 1, compounds (10 mM stock in DMSO) are added with the ECHO acoustic liquid handler system (Beckman Coulter), including DMSO controls. Plates are incubated for 120 h, and cell viability is measured using CellTiter-Glo luminescent cell viability reagent (Promega product code G7570). Viability (stated as percent of control) is defined as relative luminescence units RLU of each well divided by the RLU of cells in DMSO controls. IC50 values are determined from viability measurements by non-linear regression using a four-parameter model.

[2] = Metabolic (microsomal) stability assay, human liver microsomes (HLM); format: in vitro ADME; conditions: predicted clearance as percent of liver blood flow, 1 μM
Protocol: The metabolic degradation of the test compound is assayed at 37° C. with pooled liver microsomes (mouse (MLM), rat (RLM) or human (HLM)). The final incubation volume of 48 μL pertime point contains TRIS buffer (pH 7.5; 0.1 M), magnesium chloride (6.5 mM), microsomal protein (0.5 mg/mL for mouse/rat, 1 mg/mL for human specimens) and the test compound at a final concentration of 1 μM. Following a short preincubation period at 37° C., the reactions are initiated by addition of 12 μL beta-nicotinamide adenine dinucleotide phosphate, reduced form (NADPH, 10 mM) and terminated by transferring an aliquot into solvent after different time points (0, 5, 15, 30, 60 min). Additionally, the NADPH-independent degradation is monitored in incubations without NADPH, terminated at the last time point by addition of acetonitrile. The quenched incubations are pelleted by centrifugation (4,000 rpm, 15 min). An aliquot of the supernatant is assayed by LC-MS/MS to quantify the concentration of parent compound in the individual samples.
In vitro intrinsic clearance (CLint, in vitro) is calculated from the time course of the disappearance of the test drug during the microsomal incubation. Each plot is fitted to the first-order elimination rate constant as C(t)═C0*exp(−ke*t), where C(t) and C0 are the concentration of unchanged test drug at incubation time t and that at preincubation and ke is the disappearance rate constant of the unchanged drug. Subsequently, CLint in vitro (μL min^−1·amount protein) values are converted to predicted CLint,in vivo (mL min^−1 kg^−1) from incubation parameters according to the equation CLint, in vivo=CLint, in vitro×(incubation volume (ml)/amount protein (mg))×(amount protein (mg)/g liver tissue)×(liver weight/body wt.).
For better across species comparison the predicted clearance is expressed as percent of the liver blood flow [% QH] (mL min^−1·kg^−1) in the individual species. In general, high stability (corresponding to low % QH) of the compounds across species is desired.

[3] = Caco-2 assay (permeability PappAB, PappBA, efflux ratio); format: in vitro ADME; conditions: human, Caco-2, 10 μM test compound, pH 7.4; for Papp A→B at 90 min, 10 μM: apical to basolateral; for efflux ratio at 90 min, 10 μM: efflux ratio PappBA/PappAB, read-out: Caco ER
Source text: The assay provides information on the potential of a compound to pass the cell membrane, on the extent of oral absorption as well as on whether the compound is actively transported by uptake and/or efflux transporters. Permeability measurements across polarized, confluent Caco-2 cell monolayers grown on permeable filter supports (Corning, catalog #3391) are used. […] The receiver and donor compartments contain 0.25% bovine serum albumine (BSA) in assay buffer. Passive diffusion and/or active transport of compounds across the monolayer is measured in both apical to basolateral (a-b) and basolateral to apical (b-a) direction. a-b permeability (PappAB) represents drug absorption from the intestine into the blood and b-a permeability (PappBA) drug secretion from the blood back into the intestine via both passive permeability as well as active transport mechanisms mediated by efflux and uptake transporters that are expressed on the Caco-2 cells. After a pre-incubation of 25-30 min at 37° C., at predefined time points (0, 30, 60 and 90 min), samples were taken from the receiver and donor compartment, respectively. Concentrations of test compounds in samples were measured by HPLC/MS/MS, samples from the donor compartment were diluted 1:50 (v:v) with assay buffer, samples from receiver compartment were measured without dilution.
Apparent permeabilities in a-b (PappAB) and b-a (PappBA) directions are calculated according to the formula:
[formula] • Vrec [mL]: buffer volume in receiver compartment • Cdon [μmol/mL]: concentration of test compound in donor compartment at t=0 • ΔCrec: difference between concentrations of test compound in receiver compartment at start and end of incubation time • Δt: Incubation time • Vrec·ΔCrec/Δt [μmol/min]: Amount of compound transferred to receiver compartment per time • A [cm^2]: filter surface
Caco-2 efflux ratios (ER) are calculated as the ratio of PappBA/PappAB.

| SMILES | IC50 [1] | IC50 (AsPC-1 cells) | HLM QH [2] | Papp A→B at 90 min, 10 μM [3] | efflux ratio at 90 min, 10 μM [3] |
| --- | --- | --- | --- | --- | --- |
| C[C@H](Oc1cc(N2CCNC3(CC3)C2)nc(-c2onc3c2CCC[C@@]32CCCc3sc(N)c(C#N)c32)n1)[C@@H]1CCCN1C [I-5] | 124 nM | 86 nM | <24% | 1.1 ×10⁻⁶ cm/s | 29 |
| C[C@H](Oc1cc(N2C[C@H](C)N[C@@H](C)C2)nc(-c2onc3c2CCC[C@@]32CCCc3sc(N)c(C#N)c32)n1)[C@@H]1CCCN1C [I-6] | 253 nM | 1700 nM | <24% | 2.9 ×10⁻⁶ cm/s | 15 |
| C[C@H](Oc1cc(N2CC[C@H](N(C)C)C2)nc(-c2onc3c2CCC[C@@]32CCCc3sc(N)c(C#N)c32)n1)[C@@H]1CCCN1C [I-11] | 331 nM | 565 nM | <24% | < 4.1 ×10⁻⁶ cm/s |  |
| C[C@H](Oc1cc(N2CC[C@H](N(C)C)C2)nc(-c2noc3c2CCC[C@@]32CCCc3sc(N)c(C#N)c32)n1)[C@@H]1CCCN1C [II-49] | 329 nM | 511 nM | <24% | 4.7 ×10⁻⁶ cm/s | 10.8 |
| C[C@H](Oc1cc(N2CCNC[C@]23CCOC3)nc(-c2noc3c2CCC[C@@]32CCCc3sc(N)c(C#N)c32)n1)[C@@H]1CCCN1C [II-50] | 270 nM | 142 nM | 52% | 0.3 ×10⁻⁶ cm/s | 111 |
| C[C@H](Oc1cc(-n2cc3c(n2)CCNC3)nc(-c2noc3c2CCC[C@@]32CCCc3sc(N)c(C#N)c32)n1)[C@@H]1CCCN1C [II-53] | 292 nM | 825 nM | 46% | 1.5 ×10⁻⁶ cm/s | 22 |
| C[C@H](Oc1cc(N2CCNC3(CC3)C2)nc(-c2noc3c2CCC[C@@]32CCCc3sc(N)c(C#N)c32)n1)[C@@H]1CCCN1C [II-54] | 74 nM | 67 nM | 28% | < 1.1 ×10⁻⁶ cm/s |  |
| C[C@H](Oc1cc(N2CCN(C)CC2)nc(-c2noc3c2CCC[C@@]32CCCc3sc(N)c(C#N)c32)n1)[C@@H]1CCCN1C [II-55] | 297 nM | 748 nM | <24% | 3.5 ×10⁻⁶ cm/s | 5.4 |
| C[C@H](Oc1cc(N2C[C@H](C)N[C@@H](C)C2)nc(-c2noc3c2CCC[C@@]32CCCc3sc(N)c(C#N)c32)n1)[C@@H]1CCCN1C [II-56] | 233 nM | 378 nM | <24% | 7.5 ×10⁻⁶ cm/s | 2.3 |
| C[C@H](Oc1cc(N2CCC[C@H](O)C2)nc(-c2noc3c2CCC[C@@]32CCCc3sc(N)c(C#N)c32)n1)[C@@H]1CCCN1C [II-57] | 38 nM | 1840 nM | <24% | 0.7 ×10⁻⁶ cm/s | 43.3 |
| CO[C@@H]1C[C@@H]([C@H](C)Oc2cc(-n3ccnc3)nc(-c3noc4c3CCC[C@@]43CCCc4sc(N)c(C#N)c43)n2)N(C)C1 [II-58] | 41 nM | 6420 nM | 46% | 13 ×10⁻⁶ cm/s | 1.2 |
| C[C@H](Oc1cc(N2CCC[C@@H](O)C2)nc(-c2noc3c2CCC[C@@]32CCCc3sc(N)c(C#N)c32)n1)[C@@H]1CCCN1C [II-59] | 31 nM | 2240 nM | <24% | 0.9 ×10⁻⁶ cm/s | 37.2 |
| CO[C@@H]1C[C@@H]([C@H](C)Oc2cc(-c3cnn(C)n3)nc(-c3noc4c3CCC[C@@]43CCCc4sc(N)c(C#N)c43)n2)N(C)C1 [II-62] | 34 nM | 9190 nM | 58% | 19 ×10⁻⁶ cm/s | 0.3 |
| C[C@H](Oc1cc(N2CC[C@@H](O)C2)nc(-c2noc3c2CCC[C@@]32CCCc3sc(N)c(C#N)c32)n1)[C@@H]1CCCN1C [II-66] | 54 nM | 3970 nM | <24% | < 2.9 ×10⁻⁶ cm/s |  |
| Cc1cn(C)nc1-c1cc(O[C@@H](C)[C@@H]2CCCN2C)nc(-c2noc3c2CCC[C@@]32CCCc3sc(N)c(C#N)c32)n1 [II-68] | 56 nM | 3240 nM | <24% | 5.8 ×10⁻⁶ cm/s | 1.2 |
| C[C@H](Oc1cc(-n2ccnc2)nc(-c2noc3c2CCC[C@@]32CCCc3sc(N)c(C#N)c32)n1)[C@@H]1CCCN1C [II-69] | 18 nM | 1730 nM | <24% | 4.1 ×10⁻⁶ cm/s | 5.4 |
| C[C@H](Oc1cc(-n2cncn2)nc(-c2noc3c2CCC[C@@]32CCCc3sc(N)c(C#N)c32)n1)[C@@H]1CCCN1C [II-70] | 25 nM | 1940 nM | 61% | 17 ×10⁻⁶ cm/s | 1.4 |
| C[C@H](Oc1cc(-c2cn(C3COC3)nn2)nc(-c2noc3c2CCC[C@@]32CCCc3sc(N)c(C#N)c32)n1)[C@@H]1CCCN1C [II-100] | 19 nM | 9770 nM | 28% |  |  |
| C[C@H](Oc1cc(-n2ccc(C#N)n2)nc(-c2noc3c2CCC[C@@]32CCCc3sc(N)c(C#N)c32)n1)[C@@H]1CCCN1C [II-102] | 4 nM | 2770 nM | 51% |  |  |
| C[C@H](Oc1cc(-n2ccncc2=O)nc(-c2noc3c2CCC[C@@]32CCCc3sc(N)c(C#N)c32)n1)[C@@H]1CCCN1C [II-116] | 6 nM | 6520 nM | 75% |  |  |
